Key:
MCF7 cells = experiment: Cell proliferation assay (ATPlite), MCF-7; format: cell-based, human; settings: Homo sapiens, inhibition of cell proliferation, 72 h
Procedure, shortened: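 Cells seeded (MCF-7 2000/well, HG-1 1000/well in RPMI with 2 ng/ml IL-6), then after 24 h exposed to compound at 0.5% DMSO final for 72 h. Proliferation read as ATP luminescence (ATPlite); EC50 calculated from the dose-response.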

[1] = tested on: HIF mediated transcription; experiment: Inhibition of activation of HIF mediated transcription under hypoxic conditions (CellSensor HRE-bla HCT-116); format: cell-based; settings: Homo sapiens; HRE-bla HCT-116 cells, deferoxamine-induced hypoxia, 24 h
Protocol: Inhibition of an activated HIF signaling response under chemically-induced hypoxic conditions due to compound treatment was determined using the CellSensor® HRE-bla HCT-116 stably transfected reporter cell line from Invitrogen according to the manufacturer's instructions. HIF is a transcriptional factor composed of the constitutively expressed HIF1β subunit and one of three HIFα subunits (HIF1α, HIF2α, HIF3α). This assay is responsive towards HIFa activity in general. In one example, HIF-1, when stabilized by hypoxic conditions, upregulates several genes to promote cell survival in low-oxygen conditions. These include glycolysis enzymes, which allow ATP synthesis in an oxygen-independent manner, and vascular endothelial growth factor (VEGF), which promotes angiogenesis. HIF-1 acts by binding to HIF-responsive elements (HREs) in promoters that generally contain the sequence NCGTG.
Cells were maintained as described previously and seeded into 384-well, clear-bottom plates (Corning 3712) at 15000 cells/well in 32 μl assay medium (Opti-MEM [Invitrogen], 0.5% FBS, 100 U/ml penicillin, 100 μg/ml streptomycin, 0.1 mM non-essential amino acids [NEAA], 1 mM sodium pyruvate, 5 mM HEPES [pH 7.3]). Following a 2 h incubation period, compounds (4 μl) were subsequently added to the cells at 10× concentrations in 5% DMSO and incubated under normal conditions for 30 min. To induce hypoxic conditions, 4 μl of a 2 mM deferoxamine (DFO) solution was added to the cells followed by 24 h incubation under standard assay conditions (as described). Control wells included wells containing only medium (no cells) and wells treated with 0.5% DMSO instead of compound.
Prior to the readout, the Substrate Loading Solution was prepared as described in the manufacturer's protocol and 10 μl added to each well. Following a further 2 h incubation period at room temperature and in the dark, fluorescence was measured at two wavelengths (blue channel: ex. 409 nm, em. 460 nm; green channel: ex. 409 nm, em. 530 nm) on a PerkinElmer Envision HTS. For the analysis, the average signal of the cell-free wells at 460 nm and 530 nm was first subtracted from the blue and green channel data, respectively. The blue/green emission ratios were then calculated for each well, dividing the background-corrected blue emission values by the background-corrected green emission values. IC50 values were determined from these ratios using GraphPad Prism (Prism 5, GraphPad software, Inc.).

tubulin = biological target: T1, tubulin (Sus scrofa, UniProt P02550+P02554); experiment: Inhibition of in vitro tubulin polymerization; format: biochemical, porcine; settings: final absorbance 340 nm at 90 min
T1 construct: prepared in-house from porcine brain using a standard procedure involving cycles of polymerization/de-polymerization; from tissue; host or cells: porcine brain
Protocol: To assess the degree of inhibition of in vitro tubulin polymerization, a tubulin solution (prepared in-house from porcine brain using a standard procedure involving cycles of polymerization/de-polymerization, see Castoldi & Popov (2003) Protein Expr. Purif. 32(1): 83-88) was incubated with varying concentrations of compounds under polymerizing conditions and kinetic experiments performed to determine the amount of polymerization (as measured by changes in OD at 340 nm) taking place over a 90 min period.
Compound solutions were diluted in double-distilled water to yield final 10× solutions containing 5% DMSO. 5 μl solutions were then added to the wells on a 384-well clear-bottom plate (Corning #3711, Corning Inc.) in preparation for the addition of tubulin. The tubulin solution (19.6 mg/ml, in 80 mM K-PIPES [pH 6.8], 1 mM MgCl2, 1 mM EGTA) was re-suspended to a final concentration of 4 mg/ml with ice cold G-PEM buffer (80 mM PIPES [pH 6.8], 2 mM MgCl2, 0.5 mM EGTA, 10% glycerol, 1 mM GTP) and maintained on ice for at least 1 min. 50 μl was then added to the pre-dispensed compound solutions, the plate orbital shaken on a medium setting for 5 s, and the first measurement begun immediately.
Experiments were carried out on a Safire^2™ monochromator (Tecan) preset to a stable temperature of 37° C.; the degree of polymerization was determined by measuring the absorbance of the solutions at 340 nm every minute over the 90 min cycle. Reported inhibition values were based on the final absorbance at 90 min and calculated with reference to a vehicle control (0.5% DMSO) using the minimum and maximum signals obtained for this sample.

[2] = tested on: estrogen receptor (ER)-mediated transcriptional activity; experiment: Inhibition of estrogen receptor (ER) signaling, ERE-tk-luc transfection assay in MCF-7 cells; format: cell-based; settings: Homo sapiens, MCF7, ERE-tk-luc luciferase readout, 24 h
Protocol: To determine the effect of the compounds on estrogen receptor (ER)-mediated transcriptional activity a transfection assay using the MCF-7 cell line was performed. A luciferase-coupled ERE-tk-luc construct was obtained from Dr. G. Reid (EMBL).
In brief, MCF-7 cells were maintained as described previously and seeded on the first experimental day at a concentration of 3500 cells/well in 100 μl medium and incubated under standard conditions for 24 h. Following this initial incubation period, transfection was carried out using 5 ng of the ERE-tk-luc construct (per well) and Exgene 500 transfection reagent (Fermentas) in a final buffered solution containing 150 mM NaCl and 20 mM Tris pH 8.4. The plates were then maintained for 3-4 hours until cell culture conditions in the incubator before compounds were added at 11× concentrations to yield the final desired compound concentrations in 0.5% DMSO (in the same manner as for the proliferation assays described previously).
After an additional 24 h incubation period the degree of inhibition of ER-signaling was determined via a luciferase readout. Cells were treated with Britelite™ plus solution according to the manufacturer's instructions (PerkinElmer, britelite plus, Ultra-High Sensitivity Luminescence Reporter Gene Assay System) and luciferase levels measured on an Envision HTS multilabel plate reader (PerkinElmer) in luminescence mode according to established protocols. Raw data were imported into an ActivityBase database (IDBS, ID Business Solutions) and IC50 values calculated using the IDBS program ActivityBase XE.

HG1 cells = experiment: Cell proliferation assay (ATPlite), HG-1; format: cell-based; settings: inhibition of cell proliferation, 72 h
Protocol: MCF-7 human breast adenocarcinoma cells and HL-60 acute promyelocytic leukaemia cells were obtained from ATCC (LGC Promochem). HG-1 multiple myeloma cells were obtained from Dr. D. Hose (DKFZ Heidelberg). The CellSensor® HRE-bla HCT116 cell line (colorectal carcinoma) was obtained from Invitrogen.
Cells were grown under humidified 95% air, 5% CO2 at 37° C. in Dulbecco's modified Eagle's medium (DMEM: MCF-7) or RPMI 1640 medium (RPMI: HL-60, HG-1) supplemented with 10% fetal bovine serum (FBS), 100 U/ml penicillin and 100 μg/ml streptomycin, 2 mM L-glutamine, and 2 ng/ml IL-6 (for the HG-1 cell line only). The HCT116 cell line was grown under the same atmospheric conditions in McCoy's 5A medium supplemented with 10% FBS and penicillin/streptomycin as above, in addition to blasticidin as a selection marker at a final concentration of 5 μg/ml.
Cell proliferation experiments were carried out in 96-well tissue culture plates with seeding of 2000 cells/well (MCF-7) or 1000 cells/well (HL-60, HG-1) in 100 μl of the relevant medium. Cells were subsequently incubated under the conditions mentioned for 24 h prior to addition of compounds.
For the determination of compound EC50 values, 10 μl compounds at 11× concentrations in 5.5% DMSO were added to the wells at various concentrations yielding a final constant percentage of 0.5% DMSO at the desired 1× compound concentration. As a positive control, cells were treated with 5.5% DMSO. The cells were then incubated for a further 72 h prior to the measurement.
To determine the degree of inhibition of cell proliferation, cells were treated with ATPlite solution according to the manufacturer's instructions (PerkinElmer, ATPlite 1-step Luminescence ATP Detection Assay System) and luciferase readout measured on an Envision HTS multilabel plate reader (PerkinElmer) in luminescence mode according to established protocols. Raw data were imported into an ActivityBase database (IDBS, ID Business Solutions) and EC50 values calculated using the IDBS program ActivityBase XE. Table 2A and 2B show the IC50 values obtained in the above-outlined cell proliferation assay for exemplary compounds of the invention.

T1 sequence (P02550 whole entry): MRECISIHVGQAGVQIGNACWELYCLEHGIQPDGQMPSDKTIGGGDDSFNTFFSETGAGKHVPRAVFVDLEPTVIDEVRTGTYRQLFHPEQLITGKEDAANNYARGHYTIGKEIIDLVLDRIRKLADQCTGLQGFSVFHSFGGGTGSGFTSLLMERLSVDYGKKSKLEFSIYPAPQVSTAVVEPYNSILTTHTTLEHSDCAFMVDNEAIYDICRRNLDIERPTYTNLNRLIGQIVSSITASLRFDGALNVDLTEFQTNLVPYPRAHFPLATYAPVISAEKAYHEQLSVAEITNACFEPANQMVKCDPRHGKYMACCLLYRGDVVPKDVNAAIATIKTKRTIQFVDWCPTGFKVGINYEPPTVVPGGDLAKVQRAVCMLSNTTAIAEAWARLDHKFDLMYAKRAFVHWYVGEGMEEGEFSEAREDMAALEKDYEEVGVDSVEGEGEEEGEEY
T1 sequence (P02554 whole entry): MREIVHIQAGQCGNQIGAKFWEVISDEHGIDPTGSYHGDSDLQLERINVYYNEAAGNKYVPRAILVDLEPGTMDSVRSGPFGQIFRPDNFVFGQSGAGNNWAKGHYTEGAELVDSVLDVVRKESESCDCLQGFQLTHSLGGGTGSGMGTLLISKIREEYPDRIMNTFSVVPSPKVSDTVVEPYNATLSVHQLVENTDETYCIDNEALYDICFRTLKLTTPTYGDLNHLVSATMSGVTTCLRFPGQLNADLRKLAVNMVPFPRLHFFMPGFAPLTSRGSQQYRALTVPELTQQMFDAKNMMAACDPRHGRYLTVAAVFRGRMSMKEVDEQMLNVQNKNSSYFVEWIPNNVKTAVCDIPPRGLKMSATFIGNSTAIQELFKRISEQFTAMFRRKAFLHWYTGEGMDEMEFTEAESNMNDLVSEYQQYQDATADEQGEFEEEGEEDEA

Row | EC50 (MCF7 cells) [µM] | EC50 [1] [µM] | inhibition at 10 µM (tubulin) [%] | IC50 [2] [µM] | Compound | EC50 (HG1 cells) [µM]
1 | < 0.5 | < 0.5 | > 50 | – | Cc1ccc(S(=O)(=O)Nc2cc(-c3ccc(C)o3)ccc2C)cc1 [Example 3, 4-Methyl-N-[2-methyl-5-(5-methyl-furan-2-yl)-phenyl]-benzenesulfonamide] | –
2 | < 0.5 | – | – | < 0.5 | Cc1ccc(S(=O)(=O)Nc2cc(-c3ccco3)ccc2C)cc1 [Example 4, N-(5-Furan-2-yl-2-methyl-phenyl)-4-methyl-benzenesulfonamide] | –
3 | < 0.5 | – | – | < 0.5 | Cc1ccc(S(=O)(=O)Nc2cc(-c3ccoc3)ccc2C)cc1 [Example 5, N-(5-Furan-3-yl-2-methyl-phenyl)-4-methyl-benzenesulfonamide] | –
4 | < 0.5 | – | 20 to 50 | – | Cc1ccc(S(=O)(=O)Nc2cc(-c3ccc(C)s3)ccc2C)cc1 [Example 11, 4-Methyl-N-[2-methyl-5-(5-methyl-thiophen-2-yl)-phenyl]-benzenesulfonamide] | –
5 | < 0.5 | – | 20 to 50 | – | COc1ccc(S(=O)(=O)Nc2cc(-c3c(C)noc3C)ccc2C)cc1 [Example 16, N-[5-(3,5-Dimethyl-isoxazol-4-yl)-2-methyl-phenyl]-4-methoxy-benzenesulfonamide] | –
6 | 0.5 to 1 | – | – | – | Cc1ccc(S(=O)(=O)Nc2cc(-c3ccccn3)ccc2C)cc1 [Example 19, 4-Methyl-N-(2-methyl-5-pyridin-2-yl-phenyl)-benzenesulfonamide] | < 0.5
7 | 1 to 10 | – | – | – | Cc1ccc(S(=O)(=O)Nc2cc(-n3cnnc3)ccc2C)cc1 [Example 22, 4-Methyl-N-(2-methyl-5-[1,2,4]triazol-4-yl-phenyl)-benzenesulfonamide] | < 0.5
8 | < 0.5 | < 0.5 | > 50 | – | Cc1ccc(S(=O)(=O)Nc2cc(-c3cscc3C)ccc2C)cc1 [Example 23, 4-Methyl-N-[2-methyl-5-(4-methyl-thiophen-3-yl)-phenyl]-benzenesulfonamide] | –
9 | < 0.5 | < 0.5 | – | < 0.5 | Cc1ccc(S(=O)(=O)Nc2cc(-c3ccc(C#N)cn3)ccc2C)cc1 [Example 43, N-[5-(5-Cyano-pyridin-2-yl)-2-methyl-phenyl]-4-methyl-benzenesulfonamide] | –
10 | < 0.5 | – | – | < 0.5 | COc1ccc(S(=O)(=O)Nc2cc(-c3ccc(C#N)cn3)ccc2C)cc1 [Example 49, N-[5-(5-Cyano-pyridin-2-yl)-2-methyl-phenyl]-4-methoxy-benzenesulfonamide] | –
11 | < 0.5 | < 0.5 | – | – | Cc1ccc(S(=O)(=O)Nc2cc(-c3csc(C#N)c3)ccc2C)cc1 [Example 68, N-[5-(5-Cyano-thiophen-3-yl)-2-methyl-phenyl]-4-methyl-benzenesulfonamide] | –
12 | < 0.5 | < 0.5 | – | – | Cc1ccc(S(=O)(=O)Nc2cc(-c3ccc(C#N)c(F)c3)ccc2C)cc1 [Example 71, N-(4′-Cyano-3′-fluoro-4-methyl-biphenyl-3-yl)-4-methyl-benzenesulfonamide] | –
13 | < 0.5 | – | < 20 | < 0.5 | Cc1ccc(S(=O)(=O)Nc2cc(-c3ccc(C#N)c(C)c3)ccc2C)cc1 [Example 72, N-(4′-Cyano-4,3′-dimethyl-biphenyl-3-yl)-4-methyl-benzenesulfonamide] | –
14 | < 0.5 | < 0.5 | – | – | Cc1ccc(S(=O)(=O)Nc2cc(-c3csc(C#N)c3)ccc2C)cc1F [Example 95, N-(5-(5-cyanothiophen-3-yl)-2-methylphenyl)-3-fluoro-4-methylbenzenesulfonamide] | –
15 | < 0.5 | < 0.5 | – | – | COc1ccc(S(=O)(=O)Nc2cc(-c3ccc(C#N)c(OC)c3)ccc2C)cc1F [Example 103, N-(4′-cyano-3′-methoxy-4-methylbiphenyl-3-yl)-3-fluoro-4-methoxybenzenesulfonamide] | –
16 | < 0.5 | < 0.5 | – | – | Cc1cc(S(=O)(=O)Nc2cc(-c3ccc(C#N)s3)ccc2C)ccc1F [Example 112, N-(5-(5-cyanothiophen-2-yl)-2-methylphenyl)-4-fluoro-3-methylbenzenesulfonamide] | –
17 | < 0.5 | < 0.5 | – | – | Cc1ccc(-c2ccc(C#N)s2)cc1NS(=O)(=O)c1ccc2c(c1)OCO2 [Example 114, N-(5-(5-cyanothiophen-2-yl)-2-methylphenyl)benzo[d][1,3]dioxole-5-sulfonamide] | –

From patent publication US20120095024A1, “TOLUIDINE SULFONAMIDES AND THEIR USE” (Elara Pharmaceuticals GmbH, priority 2008, published 2012)
